Results reported in publication PMC12406195, “Understanding the Modes of Action of β‑Ketoiminato Iridium(III) Complexes in Cancer Cells” (Inorganic Chemistry, 2025).

What was measured:
Assay type in all cases: cell-based, human
[1] = system: MDA-MB-231 cells; assay: Chemosensitivity (MTT cell viability) assay, MDA-MB-231; settings: for IC50: n = 9
Protocol: (§1) All cytotoxicity assays were conducted using human cell lines: breast adenocarcinomas (MDA-MB-231 and MCF-7), pancreatic carcinoma (MIA PaCa-2) and non-cancerous epithelial retinal (ARPE-19) cell lines. All cell lines were routinely maintained as monolayer cultures in appropriate complete media:
(§2) MCF-7, MIA PaCa-2 and ARPE-19 in high glucose DMEM and MDA-MB-231 in RPMI-1640, and both media were supplemented with 10% FBS, 1 mM sodium pyruvate, 2 mM L-glutamine, and 1% pen-strep. All cells were initially grown in T-25 or T-75 flasks at 37 °C and 5% CO2. Before chemosensitivity studies, cell monolayers were passaged using trypsin-EDTA (0.05%) and diluted to a concentration of 1 x 10^4 cells/mL (or 4 x 10^4 cells mL for 24 h assays). All assays were conducted in 96-well plates, in which 100 µL of the cell suspension was added for 24 h at 37 °C and 5% CO2, and then 100 µL of compound/medium dilutions for a further 96 h (or 24 h). All compound stocks were made using sterile DMSO at 100 mM before dilution, and a maximum of 0.1% DMSO was used in each assay. After incubation, 3-(4,5-dimethylthiazol-2-yl)-2,5-diphenyltetrazolium bromide (20 µL, 5 mg/mL in PBS) was added to each well and incubated for 3 h at 37°C and 5% CO2. All solutions were then aspirated, DMSO (150 µL) added to each well, gently mixed, and the absorbance was measured at 540 nm using a ClarioStar spectrophotometer microplate reader. Results were plotted on a logarithmic scale, and the half maximal inhibitory concentration (IC50) was determined from a triplicate of triplicate repeats (n = 9) and reported as an IC 50 ± Standard Deviation (SD).

[2] = system: MCF-7 cells; assay: Chemosensitivity (MTT cell viability) assay, MCF-7
Protocol: as §1, §2

[3] = system: MIA PaCa-2 cells; assay: Chemosensitivity (MTT cell viability) assay, MIA PaCa-2
Protocol: as §1, §2

[4] = system: MDA-MB-231 cells; assay: 3D spheroid live/dead viability assay; settings: MDA-MB-231 spheroids, 100 μM, 48 h
Protocol: 3D cell cultures of cancer are good models for preclinical cancer research, as they are more representative of tumor microenvironments. MDA-MB-231 cells were maintained using the standard cell culture methods before seeding into round-bottom ultralow-attachment plates for 3D culture. Once the cells were seeded, the plate was centrifuged to assist with cell clumping at the bottom of the well and facilitate uniform spheroid formation. After 24 h, medium containing collagen I was added, and the cells were allowed to aggregate further. After sufficient growth of the spheroids (Day 4 – Figure ), the cells were treated with 100 μM of 1 for 48 h. The higher concentration was chosen, as it has been reported that spheroids require higher drug doses than two-dimensional (2D) experiments.
Live and dead cells were then visualized using the LIVE/DEAD Viability/Cytotoxicity Kit by Invitrogen. […]
An equal volume of Annexin V and 7-AAD solution was added to 100 μL of the cell suspension, followed by a 20 min incubation at room temperature. The cells were then analyzed using the Muse Cell Analyzer (Merck Millipore). […]
A mixture of 50 μL of cell suspension and 5 μL of Caspase 3/7 antibody (diluted 1:8 in PBS) was prepared and incubated at room temperature for 30 minutes. […] Apoptotic cells were analyzed using the Muse Cell Analyzer. […]

## [Cp*Ir(C16H14NO)(PTA)](PF6) [Compound 1]
[1]; MDA-MB-231, 24 h
  IC50: 18 ± 1 µM
[1]; MDA-MB-231, 96 h
  IC50: 6.3 ± 0.7 µM
[1]; MDA-MB-231 compared to ARPE-19, 96 h
  Selectivity index (SI): 1.7
[2]; MCF-7, 96 h, n = 9
  IC50: 48 ± 3 µM
[2]; MCF-7 compared to ARPE-19, 96 h
  Selectivity index (SI): 0.2
[3]; MIA PaCa-2, 96 h, n = 9
  IC50: 9 ± 1 µM
[3]; MIA PaCa-2 compared to ARPE-19, 96 h
  Selectivity index (SI): 1.2
[4]
  Cytotoxicity in 3D spheroids (live/dead staining): significant cytotoxicity
